This is an account of results in US20140357655A1, “SPIROINDOLINE DERIVATIVES AS GONADOTROPIN- RELEASING HORMONE RECEPTOR ANTAGONISTS” (Bayer Intellectual Property GmbH, priority 2012, published 2014).

This assay addresses T1, human GnRH receptor (Homo sapiens, UniProt P30968).
T1 sequence (P30968 1-328): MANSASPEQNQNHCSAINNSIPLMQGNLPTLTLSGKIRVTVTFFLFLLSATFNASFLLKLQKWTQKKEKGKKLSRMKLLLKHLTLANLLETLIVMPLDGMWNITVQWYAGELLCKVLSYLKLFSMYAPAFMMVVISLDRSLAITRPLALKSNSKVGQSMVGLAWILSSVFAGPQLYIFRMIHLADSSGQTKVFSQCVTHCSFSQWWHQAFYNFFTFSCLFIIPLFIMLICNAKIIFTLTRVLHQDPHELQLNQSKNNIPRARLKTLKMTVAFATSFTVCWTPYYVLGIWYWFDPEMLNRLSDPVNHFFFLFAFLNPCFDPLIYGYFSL
In words: IP-One HTRF assay with buserelin (at EC80) stimulation. In kind it is cell-based. As to conditions: CHO cells stably expressing human GnRH receptor, read-out: Potency in IP-One HTRF assay, given as IC50. The procedure, abridged: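 Ten-point duplicate titrations (20 μM to 1 nM) were fitted by 4-parameter model to normalized 665/620 nm HTRF ratios, 0% = no compound, 100% = no agonist. Assay measured IP1 accumulation in human GnRH-R CHO cells stimulated 1 h at 37° C with EC80 buserelin, then lysed 1 h at 22° C.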

Usually IC50 stands for the concentration at which inhibition is half-maximal.

As to `COc1cccc(S(=O)(=O)N2c3ccc(C(=O)NCc4ncccc4F)cc3C3(CCS(=O)(=O)CC3)C2C2CC2)c1` (stereo not shown) [Example 53, 2-cyclopropyl-N-[(3-fluoropyridin-2-yl)methyl]-1-[(3-methoxyphenyl)sulfonyl]-1,2,2′,3′,5′,6′-hexahydrospiro[indole-3,4′-thiopyran]-5-carboxamide 1′,1′-dioxide], the IC50 came out at 0.617 µM.

`C=CCC1N(S(=O)(=O)c2cccc(C(=O)OC)c2)c2ccc(C(=O)NCc3ccccc3Cl)cc2C12CCS(=O)(=O)CC2` (stereo not shown) [Example 54, methyl 3-({5-[N-(2-chlorobenzyl)carbamoyl]-1′,1′-dioxido-2-(prop-2-en-1-yl)-1,2,2′,3′,5′,6′-hexahydrospiro[indole-3,4′-thiopyran]-1-yl}sulfonyl)benzoate]: the IC50 stood at 0.091 µM.

`C=CC1N(S(=O)(=O)c2cccc(C(=O)OC)c2)c2ccc(C(=O)NCc3ccccc3Cl)cc2C12CCS(=O)(=O)CC2` (stereo not shown) [Example 55, methyl 3-({5-[N-(2-chlorobenzyl)carbamoyl]-1′,1′-dioxido-2-vinyl-1,2,2′,3′,5′,6′-hexahydrospiro[indole-3,4′-thiopyran]-1-yl}sulfonyl)benzoate]: the IC50 was found to be 0.622 µM.

For `C=CCC1N(S(=O)(=O)c2cccc(C(=O)O)c2)c2ccc(C(=O)NCc3ccccc3Cl)cc2C12CCS(=O)(=O)CC2` (stereo not shown) [Example 56, 3-({5-[(2-chlorobenzyl)carbamoyl]-1′,1′-dioxido-2-(prop-2-en-1-yl)-2′,3′,5′,6′-tetrahydrospiro[indole-3,4′-thiopyran]-1(2H)-yl}sulfonyl)benzoic acid], the IC50 turned out to be 0.136 µM.

On to `C=CCC1N(S(=O)(=O)c2ccc(F)cc2)c2ccc(C(=O)NCc3ncccc3Cl)cc2C12CCS(=O)(=O)CC2` (stereo not shown) [Example 57, N-[(3-chloropyridin-2-yl)methyl]-1-[(4-fluorophenyl)sulfonyl]-2-(prop-2-en-1-yl)-1,2,2′,3′,5′,6′-hexahydrospiro[indole-3,4′-thiopyran]-5-carboxamide 1′,1′-dioxide], for which the IC50 was 0.071 µM.

Turning to `C=CCC1N(S(=O)(=O)c2ccc(F)cc2)c2ccc(C(=O)Nc3cccc(C(=O)OC)c3)cc2C12CCS(=O)(=O)CC2` (stereo not shown) [Example 58, methyl 3-[({1-[(4-fluorophenyl)sulfonyl]-1′,1′-dioxido-2-(prop-2-en-1-yl)-1,2,2′,3′,5′,6′-hexahydrospiro[indole-3,4′-thiopyran]-5-yl}carbonyl)amino]benzoate], the IC50 stood at 0.041 µM.

For `C=CCC1N(S(=O)(=O)c2ccc(F)cc2)c2ccc(C(=O)Nc3cccc(C(=O)O)c3)cc2C12CCS(=O)(=O)CC2` (stereo not shown) [Example 59, 3-[({1-[(4-fluorophenyl)sulfonyl]-1′,1′-dioxido-2-(prop-2-en-1-yl)-1,2,2′,3′,5′,6′-hexahydrospiro[indole-3,4′-thiopyran]-5-yl}carbonyl)amino]benzoic acid], the IC50 was 0.08 µM.

In the case of `COC(=O)c1cccc(S(=O)(=O)N2c3ccc(C(=O)NCc4ccccc4Cl)cc3C3(CCS(=O)(=O)CC3)C2C2CC2)c1` (stereo not shown) [Example 60, methyl 3-({5-[(2-chlorobenzyl)carbamoyl]-2-cyclopropyl-1′,1′-dioxido-2′,3′,5′,6′-tetrahydrospiro[indole-3,4′-thiopyran]-1(2H)-yl}sulfonyl)benzoate], the IC50 is 0.192 µM.

In the case of `COc1cccc(S(=O)(=O)N2c3ccc(C(=O)Nc4cccc(S(=O)(=O)N=C(N(C)C)N(C)C)c4)cc3C3(CCS(=O)(=O)CC3)C2C2CC2)c1` (stereo not shown) [Example 62, N-(3-{[bis(dimethylamino)methylidene]sulfamoyl}phenyl)-2-cyclopropyl-1-[(3-methoxyphenyl)sulfonyl]-1,2,2′,3′,5′,6′-hexahydrospiro[indole-3,4′-thiopyran]-5-carboxamide 1′,1′-dioxide], the IC50 is 0.0098 µM.

As for `O=C(Nc1ccon1)c1ccc2c(c1)C1(CCS(=O)(=O)CC1)C(C1CC1)N2S(=O)(=O)c1ccc(F)cc1` (stereo not shown) [Example 63, 2-cyclopropyl-1-[(4-fluorophenyl)sulfonyl]-N-(1,2-oxazol-3-yl)-1,2,2′,3′,5′,6′-hexahydrospiro[indole-3,4′-thiopyran]-5-carboxamide 1′,1′-dioxide], the IC50 is 0.325 µM.
